Source: the supplement of paper PMC5908809

Legend:
KHYG-1 (IL-2 2.5 ng/mL) [1] = test: percent inhibition of viability; higher = more inhibition; settings: 72 h
[2] = system: normal primary NK cells, pool 2 (3 donors) (IL-2 2.5 ng/mL); test: as above; settings: 72 h
DERL-7 (IL-2 2.5 ng/mL) [3] = test: as above; settings: 72 h
NKL (IL-2 2.5 ng/mL) [4] = test: as above; settings: 72 h
KAI3 (IL-2 2.5 ng/mL) [5] = test: as above; settings: 72 h
NK-92 (IL-2 2.5 ng/mL) [6] = test: as above; settings: 72 h
YT (IL-2 2.5 ng/mL) [7] = test: as above; settings: 72 h
[8] = system: normal primary NK cells, pool 3 (3 donors) (IL-2 2.5 ng/mL); test: as above; settings: 72 h
SNK-6 (IL-2 2.5 ng/mL) [9] = test: as above; settings: 72 h
[10] = system: normal primary NK cells, pool 1 (3 donors), resting (IL-2 0 ng/mL); test: as above; settings: 72 h
IMC-1 (IL-2 20 ng/mL) [11] = test: as above; settings: 72 h
NK-YS (IL-2 2.5 ng/mL) [12] = test: as above; settings: 72 h
[13] = system: normal primary NK cells, pool 1 (3 donors) (IL-2 2.5 ng/mL); test: as above; settings: 72 h
[14] = system: normal NK cells expanded with K562-aAPC; test: drug sensitivity score (DSS) (DSS units); higher = more sensitive; extreme values may be limits of the assay; settings: 72 h; IL-2 2.5 ng/mL
Procedure: (§1)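 Drug sensitivity and resistance testing on K562-aAPC-expanded normal NK cells: 5 concentrations (10-fold steps over a 10,000-fold range), 72 h at 37 °C, viability by CellTiter-Glo normalised to DMSO and benzethonium chloride controls; DSS from the fitted curve.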

KHYG-1 (IL-2 2.5 ng/mL) [15] = test: as above; settings: 72 h
[16] = system: normal primary NK cells, pool 2 (3 donors) (IL-2 2.5 ng/mL); test: as above; settings: 72 h
DERL-7 (IL-2 2.5 ng/mL) [17] = test: as above; settings: 72 h
NKL (IL-2 2.5 ng/mL) [18] = test: as above; settings: 72 h
KAI3 (IL-2 2.5 ng/mL) [19] = test: as above; settings: 72 h
NK-92 (IL-2 2.5 ng/mL) [20] = test: as above; settings: 72 h
YT (IL-2 2.5 ng/mL) [21] = test: as above; settings: 72 h
[22] = system: normal primary NK cells, pool 3 (3 donors) (IL-2 2.5 ng/mL); test: as above; settings: 72 h
SNK-6 (IL-2 2.5 ng/mL) [23] = test: as above; settings: 72 h
[24] = system: normal primary NK cells, pool 1 (3 donors), resting (IL-2 0 ng/mL); test: as above; settings: 72 h
IMC-1 (IL-2 20 ng/mL) [25] = test: as above; settings: 72 h
NK-YS (IL-2 2.5 ng/mL) [26] = test: as above; settings: 72 h
[27] = system: normal primary NK cells, pool 1 (3 donors) (IL-2 2.5 ng/mL); test: as above; settings: 72 h
[28] = system: normal NK cells expanded with K562-aAPC; test: percent inhibition of viability; higher = more inhibition; settings: 72 h, IL-2 2.5 ng/mL
Procedure: as §1

N#Cc1ccc(C(c2ccc(C#N)cc2)n2cncn2)cc1 [Letrozole] (max concentration tested 10000 nM)
percent inhibition of viability [%]
Settings	1 nM	10 nM	100 nM	1000 nM	10000 nM
DERL-7 (IL-2 2.5 ng/mL) [3]	3.92	-4.41	0.76	-20.5	-8.07
IMC-1 (IL-2 20 ng/mL) [11]	-2.09	-2.27	-1.74	2.28	8.91
KAI3 (IL-2 2.5 ng/mL) [5]	-6.48	-8.29	2.19	2.56	14.1
KHYG-1 (IL-2 2.5 ng/mL) [1]	-7.78	-5.69	-3.04	-1.07	5.03
NK-92 (IL-2 2.5 ng/mL) [6]	-10.2	-8	-6.61	-5.03	17.5
NK-YS (IL-2 2.5 ng/mL) [12]	-8.7	-6.85	-4.19	1.26	9.67
NKL (IL-2 2.5 ng/mL) [4]	-6.26	-9.07	3.52	11.2	10.6
SNK-6 (IL-2 2.5 ng/mL) [9]	14.2	-31.4	-25.2	-23.6	-28.2
YT (IL-2 2.5 ng/mL) [7]	0.65	-5.8	1.61	-1.29	30.5
[2]	-3.07	-5.44	6.01	0.12	-0.44
[8]	2.09	-1.11	10.7	-4.55	-7.8
[10]	-3.46	12.2	4.99	1.86	7.77
[13]	-10.5	0.24	0.58	3.66	5.55
[28]	-3.92	-7.21	-4.76	2.21	7.69

Settings	drug sensitivity score
DERL-7 (IL-2 2.5 ng/mL) [17]	0
IMC-1 (IL-2 20 ng/mL) [25]	0
KAI3 (IL-2 2.5 ng/mL) [19]	0.38
KHYG-1 (IL-2 2.5 ng/mL) [15]	0
NK-92 (IL-2 2.5 ng/mL) [20]	0.25
NK-YS (IL-2 2.5 ng/mL) [26]	0
NKL (IL-2 2.5 ng/mL) [18]	0.42
SNK-6 (IL-2 2.5 ng/mL) [23]	0
YT (IL-2 2.5 ng/mL) [21]	1.23
[14]	0
[16]	0
[22]	0
[24]	0
[27]	0

O=C(Nc1cccc(C(F)(F)F)c1)Nc1cc(S(=O)(=O)NC2CC2)ccc1-c1ccsc1 [AGI-6780] (max concentration tested 10000 nM)
percent inhibition of viability [%]
Settings	1 nM	10 nM	100 nM	1000 nM	10000 nM
DERL-7 (IL-2 2.5 ng/mL) [3]	2.8	2.88	5.06	7.2	42.2
IMC-1 (IL-2 20 ng/mL) [11]	-3.83	-6.4	-1.13	-1.96	12.3
KAI3 (IL-2 2.5 ng/mL) [5]	7.81	-7.37	-5.02	-1.47	24.4
KHYG-1 (IL-2 2.5 ng/mL) [1]	0.2	-3.96	-1.95	2.69	43.5
NK-92 (IL-2 2.5 ng/mL) [6]	-7.9	-10.9	-5.67	20.1	65.8
NK-YS (IL-2 2.5 ng/mL) [12]	-0.22	0.5	-0.98	2.65	23.1
NKL (IL-2 2.5 ng/mL) [4]	-8.69	-12.6	-8.03	-5.7	20.2
SNK-6 (IL-2 2.5 ng/mL) [9]	-7.22	11.7	2.33	11.1	32.3
YT (IL-2 2.5 ng/mL) [7]	-2.18	-6.24	-5.3	5.28	46.9
[2]	-16	-3.85	-3.48	9.29	20.2
[8]	-11.5	-1.88	-0.35	8.79	8.51
[10]	2.29	1.29	13	17.2	44.5
[13]	-6.68	-2.93	8.08	7.42	23.6
[28]	-7.15	-5.5	-5.48	-5.66	6.74

Settings	drug sensitivity score
DERL-7 (IL-2 2.5 ng/mL) [17]	3.34
IMC-1 (IL-2 20 ng/mL) [25]	0.03
KAI3 (IL-2 2.5 ng/mL) [19]	0.81
KHYG-1 (IL-2 2.5 ng/mL) [15]	2.61
NK-92 (IL-2 2.5 ng/mL) [20]	6.57
NK-YS (IL-2 2.5 ng/mL) [26]	1.21
NKL (IL-2 2.5 ng/mL) [18]	0.4
SNK-6 (IL-2 2.5 ng/mL) [23]	2.72
YT (IL-2 2.5 ng/mL) [21]	3.31
[14]	0
[16]	1.59
[22]	0
[24]	4.5
[27]	1.25

Cn1cc(-c2ccc3nnc(C(F)(F)c4ccc5ncccc5c4)n3n2)cn1 (max concentration tested 10000 nM)
percent inhibition of viability [%]
Settings	1 nM	10 nM	100 nM	1000 nM	10000 nM
DERL-7 (IL-2 2.5 ng/mL) [3]	-6.47	1.35	-5.46	-8.39	-0.31
IMC-1 (IL-2 20 ng/mL) [11]	2.83	3.66	7.99	14.2	18.1
KAI3 (IL-2 2.5 ng/mL) [5]	3.43	0.25	2.09	1.51	5.42
KHYG-1 (IL-2 2.5 ng/mL) [1]	0.7	1.87	-1.15	9.39	7.11
NK-92 (IL-2 2.5 ng/mL) [6]	3.19	2.36	1.58	20	16.7
NK-YS (IL-2 2.5 ng/mL) [12]	-0.7	-2.18	-0.71	3.19	6.06
NKL (IL-2 2.5 ng/mL) [4]	15.6	0.97	2.69	5.68	32.8
SNK-6 (IL-2 2.5 ng/mL) [9]	-5.06	-3.02	-0.1	27.9	44
YT (IL-2 2.5 ng/mL) [7]	2.08	2.01	-0.66	8.07	15.4
[2]	-8.18	-11	-4.17	-3.65	7.05
[8]	-11.6	-17.9	-6.24	0.44	0.55
[10]	-30.2	-15.2	-20.6	-28.2	-14.9
[13]	-10.8	-1.09	-9.66	-1.21	4
[28]	2.09	-3.72	2.32	3.57	16.4

Settings	drug sensitivity score
DERL-7 (IL-2 2.5 ng/mL) [17]	0
IMC-1 (IL-2 20 ng/mL) [25]	1.63
KAI3 (IL-2 2.5 ng/mL) [19]	0
KHYG-1 (IL-2 2.5 ng/mL) [15]	0
NK-92 (IL-2 2.5 ng/mL) [20]	2.9
NK-YS (IL-2 2.5 ng/mL) [26]	0
NKL (IL-2 2.5 ng/mL) [18]	2.43
SNK-6 (IL-2 2.5 ng/mL) [23]	5.6
YT (IL-2 2.5 ng/mL) [21]	0.87
[14]	0.71
[16]	0
[22]	0
[24]	0
[27]	0
